Measurements from PubChem BioAssay AID330 (DTP/NCI, 2004).
Several values for one entry are separate records, joined by “and”; a condition that tells them apart may be missing. Equal values may be shown once. Inconclusive results and toxic doses are left out.

System: P388 leukemia ip, CD2F1 mice, survival T/C
Assay: NCI In Vivo Anticancer Drug Screen. Data for tumor model P388 Leukemia (intraperitoneal) in CD2F1 (CDF1) mice
Details: endpoint: median survival time, higher = longer survival
In short: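 Mice carrying the transplanted tumor received test compound or vehicle. Survival was recorded in each group, and the value is the treated-group measurement divided by that of the vehicle-treated control group.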

[1] = dose: 12.5 mg/kg/injection, schedule: Q04DX003 (ip), vehicle: saline with Tween-80
[2] = dose: 50.0 mg/kg/injection, schedule: Q04DX003 (ip), vehicle: saline with Tween-80
[3] = dose: 50.0 mg/kg/injection, schedule: Q01DX009 (ip), vehicle: saline
[4] = dose: 50.0 mg/kg/injection, schedule: Q01DX005 (ip), vehicle: Klucel (hydroxypropylcellulose) (HPC)
[5] = dose: 100.0 mg/kg/injection, schedule: Q01DX005 (ip), vehicle: Klucel (hydroxypropylcellulose) (HPC)
[6] = dose: 200.0 mg/kg/injection, schedule: Q01DX005 (ip), vehicle: Klucel (hydroxypropylcellulose) (HPC)

Structure (SMILES): O=NN(CCCl)C(=O)NC1CCC(=O)NC1=O (stereo not drawn)
- T/C (dose: 0.5 mg/kg/injection, schedule: Q04DX003 (ip), vehicle: saline): 122 % of control
- T/C (dose: 1.0 mg/kg/injection, schedule: Q04DX003 (ip), vehicle: saline): 154 % of control
- T/C (dose: 2.0 mg/kg/injection, schedule: Q01DX005 (ip), vehicle: saline + alcohol): 214 % of control
- T/C (dose: 2.0 mg/kg/injection, schedule: Q01DX005 (iv), vehicle: saline + alcohol): 117 % of control
- T/C (dose: 2.0 mg/kg/injection, schedule: Q04DX003 (ip), vehicle: saline): 195 % of control
- T/C (dose: 3.13 mg/kg/injection, schedule: Q01DX009 (ip), vehicle: saline with Tween-80): 118 % of control
- T/C (dose: 4.0 mg/kg/injection, schedule: Q01DX001 (ip), vehicle: saline + alcohol): 172 % of control
- T/C (dose: 4.0 mg/kg/injection, schedule: Q01DX005 (ip), vehicle: saline + alcohol): 315 % of control
- T/C (dose: 4.0 mg/kg/injection, schedule: Q01DX005 (iv), vehicle: saline + alcohol): 205 % of control
- T/C (dose: 4.0 mg/kg/injection, schedule: Q01DX005 (oral), vehicle: saline + alcohol): 207 % of control
- T/C (dose: 4.0 mg/kg/injection, schedule: Q04DX003 (ip), vehicle: saline with Tween-80): 272 % of control
- T/C (dose: 4.0 mg/kg/injection, schedule: Q04DX003 (ip), vehicle: saline): 263 % of control
- T/C (dose: 6.0 mg/kg/injection, schedule: Q04DX003 (ip), vehicle: saline with Tween-80): 272 % of control
- T/C (dose: 6.25 mg/kg/injection, schedule: Q01DX009 (ip), vehicle: saline with Tween-80): 109 % of control
- T/C (dose: 8.0 mg/kg/injection, schedule: Q01DX001 (ip), vehicle: saline + alcohol): 232 % of control
- T/C (dose: 8.0 mg/kg/injection, schedule: Q01DX001 (iv), vehicle: saline + alcohol): 158 % of control
- T/C (dose: 8.0 mg/kg/injection, schedule: Q01DX005 (iv), vehicle: saline + alcohol): 252 % of control
- T/C (dose: 8.0 mg/kg/injection, schedule: Q01DX005 (oral), vehicle: saline + alcohol): 315 % of control
- T/C (dose: 9.0 mg/kg/injection, schedule: Q04DX003 (ip), vehicle: saline with Tween-80): 272 % of control
- T/C [1]: 87 % of control
- T/C (dose: 13.0 mg/kg/injection, schedule: Q01DX001 (ip), vehicle: saline with Tween-80): 517 % of control
- T/C (dose: 16.0 mg/kg/injection, schedule: Q01DX001 (ip), vehicle: saline + alcohol): 312 % of control
- T/C (dose: 16.0 mg/kg/injection, schedule: Q01DX001 (iv), vehicle: saline + alcohol): 203 % of control
- T/C (dose: 16.0 mg/kg/injection, schedule: Q01DX001 (oral), vehicle: saline + alcohol): 187 % of control
- T/C (dose: 16.0 mg/kg/injection, schedule: Q01DX005 (oral), vehicle: saline + alcohol): 119 % of control

Structure (SMILES): O=C(N/N=C/c1cc(Br)cc(Br)c1[O-])c1ccccc1.O=C(N/N=C/c1cc(Br)cc(Br)c1[O-])c1ccccc1.[Fe+2]
- T/C (dose: 100.0 mg/kg/injection, schedule: Q01DX001 (ip), vehicle: saline with Tween-80): 86 % of control
- T/C (dose: 200.0 mg/kg/injection, schedule: Q01DX001 (ip), vehicle: saline with Tween-80): 86 % of control
- T/C (dose: 400.0 mg/kg/injection, schedule: Q01DX001 (ip), vehicle: saline with Tween-80): 93 % of control

Structure (SMILES): CCOC(=O)/C=C(\C)NC1CC(OC2CC(O)(C(=O)CO)Cc3c(O)c4c(c(O)c32)C(=O)c2c(OC)cccc2C4=O)OC(C)C1O (stereo not drawn)
- T/C (dose: 6.25 mg/kg/injection, schedule: Q04DX003 (ip), vehicle: saline with Tween-80): 119 % of control
- T/C [1]: 113 % of control
- T/C [2]: 172 % of control

Structure (SMILES): S=P(N1CCCCCC1)(N1CC1)N1CC1
- T/C [1]: 109 % of control
- T/C (dose: 16.5 mg/kg/injection, schedule: Q01DX009 (ip), vehicle: saline): 108 % of control
- T/C (dose: 33.0 mg/kg/injection, schedule: Q04DX003 (ip), vehicle: saline sonified): 109 % of control
- T/C (dose: 37.5 mg/kg/injection, schedule: Q01DX009 (ip), vehicle: saline): 183 % of control
- T/C [3]: 95 % of control
- T/C (dose: 50.0 mg/kg/injection, schedule: Q04DX003 (ip), vehicle: saline sonified): 118 % of control
- T/C [2]: 154 % of control

Structure (SMILES): CC(C)NC(=O)OCc1c(COC(=O)NC(C)C)c(-c2ccc(Cl)c(Cl)c2)n2c1C[C@@H](O)C2
- T/C (dose: 2.5 mg/kg/injection, schedule: Q01DX005 (ip), vehicle: Klucel (hydroxypropylcellulose) (HPC)): 120 % of control
- T/C (dose: 5.0 mg/kg/injection, schedule: Q01DX005 (ip), vehicle: Klucel (hydroxypropylcellulose) (HPC)): 120 % of control
- T/C [4]: 150 % of control
- T/C [5]: 166 % of control

Structure (SMILES): CCNc1nc(N)nc(N)n1
- T/C [3]: 102 % of control and 103 % of control and 104 % of control
- T/C (dose: 50.0 mg/kg/injection, schedule: Q04DX002 (ip), vehicle: saline): 107 % of control
- T/C (dose: 100.0 mg/kg/injection, schedule: Q01DX009 (ip), vehicle: saline): 100 % of control and 102 % of control and 112 % of control
- T/C (dose: 100.0 mg/kg/injection, schedule: Q04DX002 (ip), vehicle: saline): 98 % of control
- T/C (dose: 200.0 mg/kg/injection, schedule: Q01DX009 (ip), vehicle: saline): 100 % of control and 110 % of control and 120 % of control
- T/C (dose: 200.0 mg/kg/injection, schedule: Q04DX002 (ip), vehicle: saline): 98 % of control
- T/C (dose: 400.0 mg/kg/injection, schedule: Q01DX009 (ip), vehicle: saline): 102 % of control and 110 % of control

Structure (SMILES): Cn1c([N+](=O)[O-])cnc1/C=C1\CCc2cc(OCCN3CCCC3)ccc2C1=O
- T/C (dose: 12.5 mg/kg/injection, schedule: Q01DX009 (ip), vehicle: saline with Tween-80): 90 % of control
- T/C (dose: 25.0 mg/kg/injection, schedule: Q01DX009 (ip), vehicle: saline with Tween-80): 93 % of control

Structure (SMILES): O=C(Nc1ccc(C2=NCCCN2)cc1)c1ccc(C(=O)Nc2ccc(C3=NCCCN3)cc2)nc1
- T/C (dose: 2.5 mg/kg/injection, schedule: Q01DX009 (ip), vehicle: saline): 100 % of control
- T/C (dose: 5.0 mg/kg/injection, schedule: Q04DX003 (ip), vehicle: saline): 95 % of control
- T/C (dose: 10.0 mg/kg/injection, schedule: Q04DX003 (ip), vehicle: saline): 90 % of control

Structure (SMILES): Cc1ccc(S(=O)(=O)OC2COC(OCc3ccccc3)C(OS(=O)(=O)c3ccc(C)cc3)C2O)cc1 (stereo not drawn)
- T/C (dose: 50.0 mg/kg/injection, schedule: Q01DX005 (ip), vehicle: saline with Tween-80): 100 % of control
- T/C (dose: 100.0 mg/kg/injection, schedule: Q01DX005 (ip), vehicle: saline with Tween-80): 86 % of control

Structure (SMILES): C/C=C1/CN(C)C2Cc3c([nH]c4ccccc34)C(c3cc4[nH]c5c(c4cc3OC)CCN3CC4CC(CC)C3C5(COC(=O)c3ccc(OC)c(OC)c3)C4)CC1C2C(=O)OC (stereo not drawn)
- T/C (dose: 6.25 mg/kg/injection, schedule: Q01DX001 (ip), vehicle: Klucel (hydroxypropylcellulose) (HPC)): 107 % of control
- T/C (dose: 12.5 mg/kg/injection, schedule: Q01DX001 (ip), vehicle: Klucel (hydroxypropylcellulose) (HPC)): 106 % of control
- T/C (dose: 25.0 mg/kg/injection, schedule: Q01DX001 (ip), vehicle: Klucel (hydroxypropylcellulose) (HPC)): 106 % of control and 113 % of control
- T/C (dose: 50.0 mg/kg/injection, schedule: Q01DX001 (ip), vehicle: Klucel (hydroxypropylcellulose) (HPC)): 104 % of control
- T/C (dose: 100.0 mg/kg/injection, schedule: Q01DX001 (ip), vehicle: Klucel (hydroxypropylcellulose) (HPC)): 100 % of control
- T/C (dose: 200.0 mg/kg/injection, schedule: Q01DX001 (ip), vehicle: Klucel (hydroxypropylcellulose) (HPC)): 100 % of control

Structure (SMILES): O=c1c2ccccc2nc2n1CCC/C2=C\c1ccc2c(c1)OCO2
- T/C (dose: 91.75 mg/kg/injection, schedule: Q04DX002 (ip), vehicle: Klucel (hydroxypropylcellulose) (HPC)): 100 % of control
- T/C (dose: 183.5 mg/kg/injection, schedule: Q04DX002 (ip), vehicle: Klucel (hydroxypropylcellulose) (HPC)): 103 % of control
- T/C (dose: 367.0 mg/kg/injection, schedule: Q04DX002 (ip), vehicle: Klucel (hydroxypropylcellulose) (HPC)): 102 % of control

Structure (SMILES): OC1C(CCl)OC(OC2(CCl)OC(CCl)C(O)C2O)C(O)C1O (stereo not drawn)
- T/C (dose: 50.0 mg/kg/injection, schedule: Q01DX009 (ip), vehicle: Klucel (hydroxypropylcellulose) (HPC)): 94 % of control
- T/C (dose: 100.0 mg/kg/injection, schedule: Q01DX009 (ip), vehicle: Klucel (hydroxypropylcellulose) (HPC)): 109 % of control
- T/C (dose: 200.0 mg/kg/injection, schedule: Q01DX009 (ip), vehicle: Klucel (hydroxypropylcellulose) (HPC)): 110 % of control

Structure (SMILES): CCOC(=O)Nc1nc2ccccc2n1CN1CCCCC1
- T/C (dose: 25.0 mg/kg/injection, schedule: Q01DX005 (ip), vehicle: Klucel (hydroxypropylcellulose) (HPC)): 97 % of control
- T/C [4]: 100 % of control
- T/C [5]: 106 % of control
- T/C [6]: 115 % of control

Structure (SMILES): CC(NC(=O)CNC(=O)CN)C(N)=O (stereo not drawn)
- T/C (dose: 50.0 mg/kg/injection, schedule: Q01DX005 (ip), vehicle: saline): 101 % of control
- T/C (dose: 100.0 mg/kg/injection, schedule: Q01DX005 (ip), vehicle: saline): 99 % of control
- T/C (dose: 200.0 mg/kg/injection, schedule: Q01DX005 (ip), vehicle: saline): 101 % of control

Structure (SMILES): CCCCCCn1[nH]nc(C(=O)OC)c1=O (tested in a mixture with another compound)
- T/C [4]: 94 % of control
- T/C [5]: 87 % of control
- T/C [6]: 92 % of control
